Patent US6117661A, “Mutant mono-oxygenase cytochrome P450cam” (BG plc, priority 1995, dated 2000)
Like-named read-outs stand apart in the source and are kept apart here.

Tests used:
Wild type P450cam [1] = target: T1, Wild type P450cam (Pseudomonas putida, UniProt P00183); type: binding, P. putida; settings: for Wild type ΔSpin high/low: -- = no shift, nd = not determined; for haem spin-state conversion on substrate binding: Soret band 418 nm to 392 nm
P450cam Mutant Y96A = P450cam Mutant Y96A (Pseudomonas putida, UniProt P00183, C335A/Y97A); type: binding, P. putida; settings: for Mutant Y96A ΔSpin high/low: -- = no shift, nd = not determined
Wild type P450cam [2] = target: T1, Wild type P450cam; assay: Turnover rate measured as NADH consumption rate; type: biochemical, P. putida; settings: small alkanes; background about 0.07
Method: (§1) A buffered solution (50 mM Tris.HCI, pH 7.4), typically 3 ml in volume, containing 10 uM putidaredoxin, 2 uM putidaredoxin reductase, 1 uM cytochrome P-450cam mono-oxygenase (wild-type or mutant), 200 mM KCI, 50 ug/ml bovine liver catalase (Sigma), and 1 mM target organic compound such as cyclohexylbenzene (added as a 0.1 M stock in ethanol) was preincubated at 30° C. for 5 minutes. The enzymatic reaction was initiated by adding NADH to a total concentration of 2 mM. Further four aliquots of NADH (to increase the NADH concentration by 1 mM each time) were added in intervals of 10 minutes, and 30 minutes into the incubation one aliquot of substrate (to increase the concentration by 1 mM) was also added. The reaction was quenched after 60 minutes by adding 0.5 ml chloroform and vortexing the mixture. The phases were separated by centrifugation (4000 g) at 4° C. The chloroform layer was analyzed by gas chromatography.
(§2) The NADH concentration can be monitored at 340 nm and, in all cases, more substrates and NADH are added during the incubation.
(§3) Turnover rate measured as NADH consumption rate
(§4) (nmole NADH/nmole P450cam/s).

[3] = target: T2, P450cam Y96A (also contains the C334A mutation) (Pseudomonas putida, UniProt P00183, C335A/Y97A); type: biochemical, P. putida; settings: small alkanes
T2 construct: reconstituted with putidaredoxin and putidaredoxin reductase
Method: as §1, §2, §3, §4

[4] = target: T3, P450cam active site mutant Y96A (also C334A) (Pseudomonas putida, UniProt P00183, C335A/Y97A); type: biochemical, P. putida; settings: label = product
T3 construct: reconstituted with putidaredoxin and putidaredoxin reductase
Method: as §1
(§5) For many substrate compounds such as cyclohexylbenzene for which not all the P-450cam-mediated oxidation products are commercially available, the chloroform extracts are evaporated to dryness under a stream of nitrogen. The residues were extracted with hexane and the oxidation products separated by high performance liquid chromatography, eluting with a hexane/isopropanol gradient. The purified products were then identified by mass spectroscopy and particularly nuclear magnetic resonance spectroscopy.
as §2

[5] = target: T4, P450cam active site mutant Y96F (also C334A) (Pseudomonas putida, UniProt P00183, C335A/Y97F); type: biochemical, P. putida; settings: label = product
T4 construct: reconstituted with putidaredoxin and putidaredoxin reductase
Method: as §1, §5, §2

Compound	Wild type Vs DTT (Wild type P450cam [1])	Mutant Y96A Vs DTT (P450cam Mutant Y96A)	Mutant Y96A ΔSpin high/low (P450cam Mutant Y96A)	other results
c1ccc2c(c1)CCCC2 [1,2,3,4-Tetrahydro naphthalene]	10	40	40	Wild type ΔSpin high/low (Wild type P450cam [1]): 5
C1=Cc2ccccc2CC1 [1,2-Dihydronaphthalene]	20	90	30	Wild type ΔSpin high/low (Wild type P450cam [1]): 5
CCc1cccc2ccccc12 [1-Ethylnaphthalene]	–	20	5	–
CCCC(=O)Oc1cccc2ccccc12 [1-Naphthylbutyrate]	5	5	–	–
CCC(=O)Oc1cccc2ccccc12 [1-Naphthylpropionate]	20	20	0	–
CC(C)CC(C)(C)C [2,2,4-trimethyl pentane]	–	–	–	Turnover rate (NADH consumption rate) Wild type (Wild type P450cam [2]): 0.9 nmole NADH/nmole P450cam/s; Turnover rate (NADH consumption rate) Y96A [3]: 5.3 nmole NADH/nmole P450cam/s
CCC(C)(C)C [2,2-dimethyl butane]	–	–	–	Turnover rate (NADH consumption rate) Wild type (Wild type P450cam [2]): background; Turnover rate (NADH consumption rate) Y96A [3]: 14.0 nmole NADH/nmole P450cam/s
CCCC(C)(C)C [2,2-dimethyl pentane]	–	–	–	Turnover rate (NADH consumption rate) Wild type (Wild type P450cam [2]): 5.2 nmole NADH/nmole P450cam/s; Turnover rate (NADH consumption rate) Y96A [3]: 12.8 nmole NADH/nmole P450cam/s
CCc1ccc2ccccc2c1 [2-Ethylnaphthalene]	–	20	10	–
O=Cc1ccc2c(c1)Cc1ccccc1-2 [2-Fluorencarboxaldehyde]	–	50	–	–
CCCCC(C)O (stereo not shown) [2-hexanol]	–	–	–	Products(%) Y96A ([4]; substrate hexane): 26%; Products(%) Y96F ([5]; substrate hexane): 24%
CCCCC(C)=O [2-hexanone]	–	–	–	Products(%) Y96A ([4]; substrate hexane): 15%; Products(%) Y96F ([5]; substrate hexane): 10%
CCCCC(C)(C)O [2-methyl-2-hexanol]	–	–	–	Products(%) Y96A ([4]; substrate 2-methyl hexane): 74%; Products(%) Y96F ([5]; substrate 2-methyl hexane): 72%
CCCC(O)C(C)C (stereo not shown) [2-methyl-3-hexanol]	–	–	–	Products(%) Y96A ([4]; substrate 2-methyl hexane): 4%; Products(%) Y96F ([5]; substrate 2-methyl hexane): 7%
CCCC(O)CC (stereo not shown) [3-hexanol]	–	–	–	Products(%) Y96A ([4]; substrate hexane): 32%; Products(%) Y96F ([5]; substrate hexane): 50%
CCCC(=O)CC [3-hexanone]	–	–	–	Products(%) Y96A ([4]; substrate hexane): 28%; Products(%) Y96F ([5]; substrate hexane): 16%
CC(C)CCC(C)O (stereo not shown) [5-methyl-2-hexanol]	–	–	–	Products(%) Y96A ([4]; substrate 2-methyl hexane): 8%; Products(%) Y96F ([5]; substrate 2-methyl hexane): 5%
CC(=O)CCC(C)C [5-methyl-2-hexanone]	–	–	–	Products(%) Y96A ([4]; substrate 2-methyl hexane): 14%; Products(%) Y96F ([5]; substrate 2-methyl hexane): 16%
O=C1c2ccccc2-c2ccccc21 [9-Fluorenone]	20	5	–	–
CC1(C)[C@@H]2CC[C@@]1(C)C(=O)C2=O [(1R)-(-)-Camphorquinone]	80	80	80	Wild type ΔSpin high/low (Wild type P450cam [1]): 80
CC1(C)C(=O)[C@]2(C)CC[C@H]1C2 [(1R)-(-)-Fenchone]	70	80	50	Wild type ΔSpin high/low (Wild type P450cam [1]): 40
C=C(C)[C@H]1CC=C(C)C(=O)C1 [(S)-(+)-Carvone]	60	80	10	Wild type ΔSpin high/low (Wild type P450cam [1]): 10
O=C1c2ccccc2Cc2ccccc21 [Anthrone]	5	5	–	–
c1ccc(COCc2ccccc2)cc1 [Benzylether]	5	–	55	–
c1ccc(CCc2ccccc2)cc1 [Bibenzyl]	–	55	55	–
c1ccc(-c2ccccc2)cc1 [Biphenyl]	20	90	–	–

Compound	Wild type Vs DTT (Wild type P450cam [1])	Mutant Y96A Vs DTT (P450cam Mutant Y96A)	Mutant Y96A ΔSpin high/low (P450cam Mutant Y96A)	other results
C1CCCCC1 [Cyclohexane]	–	60	60	–
C1=CCCCC1 [Cyclohexene]	5	40	40	–
O=C(c1ccccc1)C1CCCCC1 [Cyclohexylphenylketone]	30	–	60	–
C1=CC2C3C=CC(C3)C2C1 (stereo not shown) [Dicyclopentadiene]	80	90	90	Wild type ΔSpin high/low (Wild type P450cam [1]): 50
c1ccc(Oc2ccccc2)cc1 [Diphenylether]	5	50	20	Wild type ΔSpin high/low (Wild type P450cam [1]): 10
c1ccc(Cc2ccccc2)cc1 [Diphenylmethane]	5	–	45	–
CCc1ccccc1 [Ethylbenzene]	–	–	40	–
c1ccc2c(c1)Cc1ccccc1-2 [Fluorene]	–	50	–	–
C=CC(=C)C [Isoprene]	–	10	10	–
CC1CCCCC1 [Methylcyclohexane]	50	70	100	Wild type ΔSpin high/low (Wild type P450cam [1]): 50
c1ccc(CNc2ccccc2)cc1 [N-Phenylbenzylamine]	5	–	45	–
CCCCCCCC/C=C\CCCCCCCC(=O)O [Oleic acid]	~10	~20	–	–
O=C(Oc1ccccc1)c1ccccc1 [Phenylbenzoate]	5	–	–	–
CCCCCCCCCCCCOS(=O)(=O)O [SDS]	20	60	–	–
CC(C)CCCC(C)CCCC(C)CCCCC(C)CCCC(C)CCCC(C)C (stereo not shown) [Squalane]	–	20	–	–
C=Cc1ccccc1 [Styrene]	–	30	30	–
Cc1ccccc1 [Toluene]	–	30	30	–
C1C2CC3CC1CC(C2)C3 [adamantane, reference compound]	–	–	–	haem spin-state conversion on substrate binding (Wild type P450cam [1]): fully converted the haem to the 5-co-ordinated, high-spin form
O=C1C2CC3CC(C2)CC1C3 [adamantanone, reference compound]	–	–	–	haem spin-state conversion on substrate binding (Wild type P450cam [1]): fully converted the haem to the 5-co-ordinated, high-spin form
C(=C/c1ccccc1)/c1ccccc1 [cis-Stilbene]	20	50	40	–
CCCCCCCCCCCC [n-Dodecane]	–	5	5	–
CCCCCCCCC [n-Nonane]	–	45	70	–
CCCCCCCCCCC [n-Undecane]	–	20	20	–
C1CC2CCC1C2 [norbornane, reference compound]	–	–	–	haem spin-state conversion on substrate binding (Wild type P450cam [1]): fully converted the haem to the 5-co-ordinated, high-spin form
C1CC[C@H]2CCCC[C@@H]2C1 [trans-Decahydro naphthalene]	10	70	90	Wild type ΔSpin high/low (Wild type P450cam [1]): 20
